Measurements from patent US5428018A, “Phenylalanine analogs of bombesin” (Merrell Dow Pharmaceuticals Inc., priority 1994, dated 1995).
Read-outs that look alike come from different tables or passages of the source. *1 amine or outer side, *2 acyl side, *3 side chain or, on linkers, in order; H or OH if unused. Where a SMILES comes first, the peptide text is derived from it. [ ]: non-standard residue; d: D form. The star is where a group is joined. X2 = CC(C)C[C@@H](C(N)=O)S(=O)(=O)C[C@H](Cc1ccccc1)N*; X1 = CN(/C(=C\c1ccccc1)C(=O)[*:2])[*:1]; pGlu = O=C1CC[C@@H](C(=O)O)N1

Assays:
bombesin receptor [1] = molecular target: T1, bombesin receptor (Mus musculus, UniProt P21729); test: Competitive binding of 125I-GRP to the bombesin receptor in mouse pancreas membranes
T1 construct: from tissue
Protocol: (§1) Pept. […] Pept 32: 241-251, 1991.
The pancreas from one or more mice were pooled and homogenized in 50 mM HEPES (pH 7.4) containing 120 mM NaCl, 5 mM KCl, and protease inhibitors (1 μg/ml aprotinin, leupeptin, pepstatin; 4 μg/ml bacitracin, antipain, bestatin; 100 μM PMSF; 1 mM EDTA) at 4° C. and centrifuged at 37,500 × g for 15 minutes. The pellet was resuspended in 50 mM HEPES (pH 7.4) containing 10 mM EDTA, 300 mM KCl, and protease inhibitors, and then incubated for 30 minutes at 4° C. The suspension was centrifuged as above and the pellet was washed two times in 50 mM HEPES (pH 7.4) containing 0.8 μg/ml thiorphan and protease inhibitors, and again centrifuged. The tissue was then resuspended in incubation buffer (1 ml per 4 mg pancreas) and incubated for 15 minutes at room temperature, then 250 μl were added to each assay tube to commence the assay. The assay tubes contained incubation buffer consisting of 50 mM HEPES (pH 7.4), 0.5% BSA, protease inhibitors, 2 mM MnCl2, 0.8 μg/ml thiorphan, 1 μM somatostatin, and concentrations of ^125 I-GRP and peptides as needed in a final volume of 500 μl. The assay was allowed to proceed to equilibrium for 90 minutes at room temperature. After this time, the contents of each tube were rapidly filtered over Whatman GF/B filters presoaked in 0.1% polyethyleneimine and the tubes and filters were rapidly washed three times with ice-cold 50 mM HEPES (pH 7.4). Filter-bound radioactivity was quantitated in a gamma counter. Competition of iodinated GRP binding by test compounds or standards was expressed as a percentage of ^125 I-GRP binding in the absence of peptide. Affinity and maximal binding were calculated with LIGAND (Biosoft, Cambridge, UK).

bombesin receptor [2] = molecular target: T1, bombesin receptor; test: Phosphatidylinositol (PI) turnover in chopped mouse pancreas; type: cell-based
Protocol: as §1
Pancrea from mice were chopped at 350 μm with a tissue chopper and pooled in Krebs-Hepes buffer [118 mM NaCl, 1.2 mM K2 PO4, 4.7 mM KCl, 1.2 mM MgSO4, 1.0 mM CaCl2, 11.7 mM glucose, 20 mM Hepes (pH 7.4)]. The chopped tissue was washed once with oxygenated Krebs-Hepes,then incubated for 30 minutes in 37° C. oxygenated Krebs-Hepes buffer with fresh buffer after 15 minutes. The tissue was then incubated in this buffer containing 200 μCi of [^3 H]inositot at 37° C. for 1 hour. The tissue was then washed twice and incubated for another 30 minutes in oxygenated Krebs-Hepes (containing 10 mM Li+) at 37° C. and with fresh buffer change after 15 minutes. Portions of the tissue mass (approximately 10 mg per assay tube) were then placed in Li+ buffer with protease inhibitors (40 μg/ml bacitracin, 4 μg/ml leupeptin, 4 μg/ml chymostatin, 0.8 μg/ml thiorphan), 0.1% BSA, and 0.1-1000 μM peptide. After 60 minutes at room temperature, the phosphatidylinositol turnover was terminated by the addition of 940 μl chloroform:methanol (1:2), followed by 310 μl chloroform, followed by 310 μl water. Each tube was then vortexed three times for 5 seconds each time and then centrifuged at […] for 8 minutes to separate the phases. 50 μl of the bottom phase (chloroform) was withdrawn from each tube and placed in a counting vial, dried, and counted in scintillation fluid. 900 μl of the top (aqueous) phase was then mixed with 2.1 ml water and loaded onto a 0.5 ml Biorad AG-1×8 (formate) ion exchange column. The material on the columns was washed in order with: 1) 10 ml of water 2) 5 ml of […] disodium tetraborate/60 mM sodium formate 3) 10 ml of 1M ammonium formate in 0.1M formic acid. The final (third) wash was collected and one ml was mixed with 14 ml of Bio-Safe or E-Colume scintillant and counted. The ratio of these counts (total inositol phosphates) to the corresponding organic phase counts (inositol incorporated into the tissue) was then calculated for each sample. The ratios in the presence of test compound and/or standards were then compared to the ratios for control tubes (i.e., no stimulating agonist). The abilities of test compounds to stimulate phosphatidylinositol turnover were determined with the aid of a computer program.

[3] = system: cell surface receptors that bind bombesin; details: background section; read-out: KD of high-affinity cell surface receptors that bind bombesin; cited from earlier work

T1 sequence (P21729 whole entry): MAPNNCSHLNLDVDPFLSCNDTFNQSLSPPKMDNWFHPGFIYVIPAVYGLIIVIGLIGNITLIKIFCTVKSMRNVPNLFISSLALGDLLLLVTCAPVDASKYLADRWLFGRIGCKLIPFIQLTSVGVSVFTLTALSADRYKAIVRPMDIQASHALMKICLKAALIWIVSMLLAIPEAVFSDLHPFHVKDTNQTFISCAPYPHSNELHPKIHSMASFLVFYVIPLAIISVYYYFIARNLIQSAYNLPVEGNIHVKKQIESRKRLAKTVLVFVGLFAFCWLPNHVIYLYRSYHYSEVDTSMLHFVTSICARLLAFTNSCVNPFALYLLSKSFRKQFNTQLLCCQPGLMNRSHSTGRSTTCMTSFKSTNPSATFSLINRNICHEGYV

SMILES | Kd (bombesin receptor [1]) [nM] | Agonist (bombesin receptor [2]) | Antagonist (bombesin receptor [2]) | also measured
COC(=O)/C(=C/c1ccccc1)NC(=O)[C@H](CC(C)C)NC(=O)[C@H](Cc1c[nH]cn1)NC(=O)CNC(=O)[C@@H](NC(=O)[C@H](C)NC(=O)[C@H](Cc1c[nH]c2ccccc12)NC(=O)[C@H](CCC(N)=O)NC(=O)[C@@H](Cc1ccccc1)NC(C)=O)C(C)C [Analog IV, (Ac-D-Phe^1,Leu^8,Δ^Z Phe9)litorin-OMe] | 1.18 |  |  | 
CSCC[C@H](NC(=O)[C@H](CC(C)C)NC(=O)[C@H](Cc1cnc[nH]1)NC(=O)CNC(=O)[C@@H](NC(=O)[C@H](C)NC(=O)[C@H](Cc1c[nH]c2ccccc12)NC(=O)[C@H](CCC(N)=O)NC(=O)[C@H](CC(N)=O)NC(=O)CNC(=O)[C@H](CC(C)C)NC(=O)[C@H](CCCN=C(N)N)NC(=O)[C@H](CCC(N)=O)NC(=O)[C@@H]1CCC(=O)N1)C(C)C)C(N)=O [Analog II, Bombesin] |  | + | - | Kd [3]: 1 nM
COC(=O)/C(=C\c1ccccc1)NC(=O)[C@H](CC(C)C)NC(=O)[C@H](Cc1c[nH]cn1)NC(=O)CNC(=O)[C@@H](NC(=O)[C@H](C)NC(=O)[C@H](Cc1c[nH]c2ccccc12)NC(=O)[C@H](CCC(N)=O)NC(=O)[C@@H](Cc1ccccc1)NC(C)=O)C(C)C [Analog VII, (Ac-D-Phe^1,Leu^8,Δ^E Phe^9)litorin-OMe] | 18.6 |  |  | 
CC(C)C[C@@H](C(N)=O)S(=O)(=O)C[C@H](Cc1ccccc1)NC(=O)[C@H](Cc1c[nH]cn1)NC(=O)CNC(=O)[C@@H](NC(=O)[C@H](C)NC(=O)[C@H](Cc1c[nH]c2ccccc12)NC(=O)[C@H](CCC(N)=O)NC(=O)[C@@H]1CCC(=O)N1)C(C)C [Analog IX, (Phe^8 .PSI.[CH2 SO2]Leu^9 litorin] ([pGlu]QWAVGH-X2; C-terminus assumed) | 9.9 |  | 30 | Agonist/antagonist character in words (bombesin receptor [2]; text under Table 1): antagonist
CSCC[C@H](NC(=O)[C@H](Cc1ccccc1)NC(=O)[C@H](Cc1c[nH]cn1)NC(=O)CNC(=O)[C@@H](NC(=O)[C@H](C)NC(=O)[C@H](Cc1c[nH]c2ccccc12)NC(=O)[C@H](CCC(N)=O)NC(=O)[C@@H]1CCC(=O)N1)C(C)C)C(N)=O [Analog III, Litorin] |  | + | - | 
COC(=O)/C(=C/c1ccccc1)N(C)C(=O)[C@H](CC(C)C)NC(=O)[C@H](Cc1c[nH]cn1)NC(=O)[C@@H](C)NC(=O)[C@@H](NC(=O)[C@H](C)NC(=O)[C@H](Cc1c[nH]c2ccccc12)NC(=O)[C@H](CCC(N)=O)NC(=O)[C@@H](Cc1ccccc1)NC(C)=O)C(C)C [Analog VIII, (Ac-D-Phe^1,D-Ala^6,Leu^8,N(Me)Δ^Z Phe^9) litorin-OMe] (Ac-[dF]QWAV[dA]HL[X1]-OMe) |  |  |  | Kd (bombesin receptor [1]; competitive binding vs 125I-GRP, mouse pancreas, read-out: Kd): 65.3 nM
